The inhibition is the drop in the measured response relative to a control, in per cent. Usually IC50 stands for the point on the concentration scale where inhibition reaches its midpoint. A higher IC50 goes with a need for much substance.

This assay has as its target c-fms (Homo sapiens, UniProt P07333). As to the kind of experiment: autophosphorylation, fluorescence polarization competition immunoassay for c-fms inhibition. Conditions: 10 nM c-fms, 1 mM ATP; for inhibition at 2 µM: at 2 μM compound; for IC50: averages of three independent measurements. The assay is classed as biochemical. As to the method: The assay buffer used was 100 mM 4-(2-hydroxyethyl)piperazine 1-ethanesulfonic acid (HEPES), pH 7.5, 1 mM 1,4-dithio-DL-threitol (DTT), 0.01% (v/v) Tween-20. Compounds were diluted in assay buffer containing 4% dimethylsulfoxide (DMSO) just prior to the assay. To each well, 5 μL of compound were added followed by the addition of 3 μL of a mix containing 33 nM c-fms (Johnson & Johnson PRD) and 16.7 mM MgCl2 (Sigma) in assay buffer. The kinase reaction was initiated by adding 2 μL of 5 mM ATP (Sigma) in assay buffer. The final concentrations in the assay were 10 nM c-fms, 1 mM ATP, 5 mM MgCl2, 2% DMSO. Control reactions were ran in each plate: in positive and negative control wells, assay buffer (made 4% in DMSO) was substituted for the compound; in addition, positive control wells received 1.2 μL of 50 mM ethylenediaminetetraaceticacid (EDTA).
The plates were incubated at room temperature for 45 min. At the end of the incubation, the reaction was quenched with 1.2 μL of 50 mM EDTA (EDTA was not added to the positive control wells at this point; see above). Following a 5-min incubation, each well received 10 μL of a 1:1:3 mixture of anti-phosphotyrosine antibody, 10×, PTK green tracer, 10× (vortexed), FP dilution buffer, respectively (all from PanVera, cat. # P2837). The plate was covered, incubated for 30 min at room temperature and the fluorescence polarization was read on the Analyst. The instrument settings were: 485 nm excitation filter; 530 nm emission filter; Z height: middle of well; G factor: 0.93. […] The reported IC50 values are averages of three independent measurements.
On the technique in general: Fluorescence polarisation rises when a labelled molecule tumbles more slowly, as on binding a larger partner.

c-fms, sequence (P07333 20-972): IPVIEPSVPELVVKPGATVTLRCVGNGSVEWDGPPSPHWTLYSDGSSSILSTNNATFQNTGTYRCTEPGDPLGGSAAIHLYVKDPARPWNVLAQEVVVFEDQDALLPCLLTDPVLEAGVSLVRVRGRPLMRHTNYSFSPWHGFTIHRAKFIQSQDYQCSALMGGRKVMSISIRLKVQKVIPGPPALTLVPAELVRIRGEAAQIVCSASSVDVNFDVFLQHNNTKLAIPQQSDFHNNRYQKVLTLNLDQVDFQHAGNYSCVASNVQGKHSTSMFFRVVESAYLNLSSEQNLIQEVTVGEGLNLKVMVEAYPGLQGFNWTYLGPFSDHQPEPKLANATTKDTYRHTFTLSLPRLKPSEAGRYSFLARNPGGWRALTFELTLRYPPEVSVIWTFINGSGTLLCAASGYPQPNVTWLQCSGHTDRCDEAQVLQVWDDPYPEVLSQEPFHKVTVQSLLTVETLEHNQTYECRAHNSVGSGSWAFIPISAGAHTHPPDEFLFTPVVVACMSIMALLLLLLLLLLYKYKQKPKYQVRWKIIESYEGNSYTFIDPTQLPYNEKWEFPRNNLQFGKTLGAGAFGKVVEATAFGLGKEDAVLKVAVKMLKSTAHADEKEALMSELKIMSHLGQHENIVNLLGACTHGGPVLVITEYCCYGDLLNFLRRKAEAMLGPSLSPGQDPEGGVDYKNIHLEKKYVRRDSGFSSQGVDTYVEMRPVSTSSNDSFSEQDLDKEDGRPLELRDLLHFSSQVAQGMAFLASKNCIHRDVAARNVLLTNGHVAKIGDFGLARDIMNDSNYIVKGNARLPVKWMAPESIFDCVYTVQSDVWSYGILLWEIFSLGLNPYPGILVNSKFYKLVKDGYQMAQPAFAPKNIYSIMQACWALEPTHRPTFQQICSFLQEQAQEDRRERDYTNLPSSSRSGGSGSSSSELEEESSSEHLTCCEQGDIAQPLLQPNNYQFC

The compound `N#Cc1ccc(C(=O)Nc2ccccc2C2CCCCC2)o1` returned an inhibition at 2 µM of 29%.
On the same count and under the same terms, under `N#Cc1ccc(C(=O)Nc2ccccc2-c2ccco2)o1` stands 13%.
With `N#Cc1ccc(C(=O)Nc2ccccc2-c2ccccc2)o1`, the half-inhibitory concentration (IC50) was below 5000 nM and at 2 µM the inhibition was 54%.
Regarding `N#Cc1ccc(C(=O)Nc2ccccc2-c2cccs2)o1`, the inhibition at 2 µM was found to be 25%.
In the case of `N#Cc1ccc(C(=O)Nc2ccccc2C2=CCCCC2)o1`, the IC50 is below 1000 nM and the inhibition at 2 µM was 85%.
